# Source: patent US12295970B2, “Imidazoquinoline compounds and prodrugs thereof” (UNIVERSITY OF KANSAS, priority 2019, dated 2025)
# “Also recorded” adds a separate entry of the source.
# Legend:
# hTLR8 = biological target: T1, hTLR8 (Homo sapiens, UniProt Q9NR97); assay: SEAP reporter assay for hTLR-8 activity (HEK-Blue hTLR8 cells); type: cell-based
# T1 construct: host or cells: HEK293 (HEK-Blue hTLR8)
# T1 sequence (Q9NR97 27-1041): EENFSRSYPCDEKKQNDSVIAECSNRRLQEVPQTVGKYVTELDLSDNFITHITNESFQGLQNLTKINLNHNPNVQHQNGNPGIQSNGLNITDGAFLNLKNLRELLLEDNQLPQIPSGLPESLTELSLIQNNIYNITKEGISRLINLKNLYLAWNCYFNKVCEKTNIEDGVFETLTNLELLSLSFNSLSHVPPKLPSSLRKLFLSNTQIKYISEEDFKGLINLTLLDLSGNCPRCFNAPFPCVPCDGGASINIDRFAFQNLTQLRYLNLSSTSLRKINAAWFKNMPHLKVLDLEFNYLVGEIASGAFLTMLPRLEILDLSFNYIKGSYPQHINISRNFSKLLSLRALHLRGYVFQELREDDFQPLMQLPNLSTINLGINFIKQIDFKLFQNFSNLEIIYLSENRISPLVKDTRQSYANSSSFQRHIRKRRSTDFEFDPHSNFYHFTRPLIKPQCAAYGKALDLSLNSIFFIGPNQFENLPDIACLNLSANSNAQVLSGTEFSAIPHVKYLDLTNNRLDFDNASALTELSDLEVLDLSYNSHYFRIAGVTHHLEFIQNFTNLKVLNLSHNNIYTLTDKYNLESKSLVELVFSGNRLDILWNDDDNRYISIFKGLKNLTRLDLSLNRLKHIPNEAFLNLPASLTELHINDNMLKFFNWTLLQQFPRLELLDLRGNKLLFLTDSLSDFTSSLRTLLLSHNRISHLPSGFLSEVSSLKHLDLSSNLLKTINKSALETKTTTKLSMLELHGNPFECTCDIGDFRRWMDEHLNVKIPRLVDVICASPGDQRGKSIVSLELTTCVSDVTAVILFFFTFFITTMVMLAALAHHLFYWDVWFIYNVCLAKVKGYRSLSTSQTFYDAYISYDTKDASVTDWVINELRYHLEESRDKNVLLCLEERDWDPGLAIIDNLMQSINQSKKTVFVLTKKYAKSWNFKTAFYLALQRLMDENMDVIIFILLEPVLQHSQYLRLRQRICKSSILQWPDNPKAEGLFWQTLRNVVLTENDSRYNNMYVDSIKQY
# Experimental: TLR activation induces NF-κB production and subsequent SEAP secretion, which is measured using HEK-Detection media (InvivoGen) containing a colorimetric substrate for SEAP (UV-Vis, 637 nm).
# The experiments followed manufacturer protocol as follows: SEAP levels were measured via absorbance at 637 nm using HEK-Blue Detection cell culture medium (InvivoGen), which contains a SEAP-specific colorimetric substrate. Compound stock solutions were first diluted in sterile DMSO at a concentration of 10 mM. Lower concentrations were prepared by serial dilution of the initial 10 mM stock samples into sterile DMSO and these solutions (22 μL) were subsequently diluted into sterile H2O (198 μL) using a BioTek Precision XS pipetting system. HEK-Blue hTLR7, HEK-Blue hTLR8, Null 1−k, and Null 1 cell suspensions in sterile HEK-Blue Detection medium were prepared at a density of 220,000 cells per mL. Clear bottom, 96-well tissue culture treated plates (Corning) were seeded with hTLR7 and Null 1−k or hTLR8 and Null 1 cell suspensions (180 μL/well), after which 20 μL of the various sample concentrations in 10% v/v DMSO/H2O were added (20 μL) in quadruplicate wells to yield the desired testing concentration in 1% v/v DMSO cell suspension. Plates were incubated at 37° C. and 5% CO2 in the dark. Absorbance measurements were taken at 637 nm at 12 hours, 4 replicates per concentration point, per cell line (hTLR7, hTLR8, Null 1−k, Null 1). Three independent measurements on different days were performed for each analog.
# Corresponding well absorbance values for each concentration tested were averaged with respect to days tested, and the average relative NF-κB induction (UV-Vis, 637 nm) of the null cell lines (Null 1-k or Null 1) were subtracted from the respective average TLR expressing cell line (hTLR7 or hTLR8) absorbance averages. […] The three independent, normalized averages for each analog were then pooled, and the data was fit using the Hill-Slope model (GraphPad Prism v7.0) using the non-linear fit from the [Agonist] vs. response—Variable Slope (four parameters) with a hill slope constrained to less than 3.
# [1] = Depot effect: ear inflammation test in healthy rabbits; type: in vivo, New Zealand White rabbits; conditions: s.c. into rabbit ear
# Experimental: It was observed that a local injection of the R848-Toco/HA-Toco nano-emulsion forms a depot at the site of injection and releases the loaded agonist in a sustained fashion, producing prolonged and localized immune stimulation while minimizing systemic off-target effects. To test the localization effect, an ear inflammation test was conducted in healthy rabbits. R848-Toco/HA-Toco and unformulated R848 were injected subcutaneously into opposing rabbit ears of subjects, and local inflammation and systemic TNF-α responses were observed.
# New Zealand White rabbits (3-4 kg) were anaesthetized using 5% isoflurane and injected subcutaneously with 2.5 mg of R848 in 250 μl of vehicle into the ipsilateral ear. R848-Toco/HA-Toco was formulated as described above, and the R848 parent compound was formulated in 0.5% polysorbate 80 (w/v) in water. For histopathology, punch biopsies were taken 24 hours post injection, fixed in formalin, and analyzed by a board-certified veterinary pathologist (Kansas State Veterinary Hospital, […], KS, USA). In separate animals, blood samples were taken pre-injection and at 0.5, 1, 2, 5, and 24 h post-injection time points from the contra-lateral ear (marginal vein, 22 ga). Whole blood was centrifuged at 1500×g for 5 min and the serum were collected for cytokine evaluation. All samples and controls were prepared, and serum cytokine levels were measured.
smiles,measurement,setting,value
"CCOCc1nc2c(N)nc3ccccc3c2n1CC(C)(C)O [Compound 2, resiquimod, reference compound]",agonist for TLR8 receptor (in words),hTLR8,agonists
same,local response at the injection site,[1]; 2.5 mg of R848 in 250 μl,minimum change; also recorded: no local reaction
same,plasma TNF-α levels,"[1]; 0.5-24 h post-injection, n=4",significant elevation
